# Experimental data reported in patent US4251546A, “Process for killing internal helminths using certain 1,1-bis-(2-substituted-3-nitrophenyl)alkane or alkylene derivatives” (ICI Australia Limited, priority 1977, dated 1981).
# Legend:
# [1] = tested on: sheep liver fluke (Fasciola hepatica); test: Fluke egg count in faeces and adult fluke count in liver of infected sheep after a single s/c dose (Table 3); format: in vivo; conditions: for POST MORTEM RESULT No. of adult fluke: liver
# Procedure: Compositions suitable for use as experimental injectable solutions were prepared by formulating the compounds as solutions of their salts either in water or in a mixture of water and ethylene glycol or water and polyethylene glycol (PEG200).
# Compositions prepared by the method of Example 10 were used as a single dose to test sheep infected with sheep liver fluke (Fasciola hepatica). The number of liver fluke eggs in the faeces was measured at the time of treatment and at selected intervals up to 30 days after treatment. The sheep were killed and the number of adult fluke in the liver counted. The amount and structure of the active ingredient in each composition and the results of treatment of a sheep with that composition are given in the Table 3 below. The compositions were administered by sub-cutaneous injection (s/c).
# immature fluke = test: Effectiveness against immature fluke (Table 3 footnotes); format: in vivo, Fasciola hepatica
# live Fasciola hepatica = test: Minimum effective concentration against live Fasciola hepatica in Hedon-Fleig medium (Table 4); conditions: in vitro, assessed 24 hours after treatment, read-out: MINIMUM EFFECTIVE CONCENTRATION (minimum concentration required to kill Fasciola hepatica)
# Procedure: The minimum effective concentration of compounds of formula I against live Fasciola hepatica was tested by the direct application of the test compound, in solution, to live Fasciola hepatica in Hedon-Fleig medium. The results are given in Table 4 where the minimum effective concentration (minimum concentration required to kill Fasciola hepatica) was assessed 24 hours after treatment with the test compound.
structure (smiles),measurement,setting,value
O=[N+]([O-])c1cc(Br)cc(C(=C(Cl)Cl)c2cc(Br)cc([N+](=O)[O-])c2O)c1O [Compound 15],"FAECAL EGG COUNT, day 7",[1]; single dose 2.0 mg/kg,0 Eggs/g faeces
same,"FAECAL EGG COUNT, day 14",[1]; single dose 2.0 mg/kg,0 Eggs/g faeces
same,POST MORTEM RESULT No. of adult fluke,[1]; single dose 2.0 mg/kg,0
same,"FAECAL EGG COUNT, day 7",[1]; single dose 12.5 mg/kg,0 Eggs/g faeces
same,"FAECAL EGG COUNT, day 14",[1]; single dose 12.5 mg/kg,0 Eggs/g faeces
same,POST MORTEM RESULT No. of adult fluke,[1]; single dose 12.5 mg/kg,0
same,effective against immature fluke,immature fluke; 10 mg/kg,91.4%
same,effective against immature fluke,immature fluke; 15 mg/kg,94%
CC(C)(C)SC(c1cc(Cl)cc([N+](=O)[O-])c1O)c1cc(Cl)cc([N+](=O)[O-])c1O [Compound 46],minimal effective concentration,live Fasciola hepatica,0.5 µg/mL
"O=[N+]([O-])c1cc(Cl)cc(C(c2cc(Cl)cc([N+](=O)[O-])c2O)C(F)(F)F)c1O [Compound 53, 1,1-Bis(5-chloro-2-hydroxy-3-nitrophenyl)-2,2,2-trifluoroethane]","FAECAL EGG COUNT, day 7",[1]; single dose 3.0 mg/kg,460 Eggs/g faeces
same,"FAECAL EGG COUNT, day 14",[1]; single dose 3.0 mg/kg,0 Eggs/g faeces
same,POST MORTEM RESULT No. of adult fluke,[1]; single dose 3.0 mg/kg,0
same,"FAECAL EGG COUNT, day 7",[1]; single dose 6.0 mg/kg,0 Eggs/g faeces
same,"FAECAL EGG COUNT, day 14",[1]; single dose 6.0 mg/kg,0 Eggs/g faeces
same,POST MORTEM RESULT No. of adult fluke,[1]; single dose 6.0 mg/kg,0
same,effective against immature fluke,immature fluke; 15 mg/kg,97%
O=[N+]([O-])c1ccc(SC(c2cc(Cl)cc([N+](=O)[O-])c2O)c2cc(Cl)cc([N+](=O)[O-])c2O)cc1 [Compound 52],minimal effective concentration,live Fasciola hepatica,1 µg/mL
N#Cc1ccc(OC(c2cc(Cl)cc([N+](=O)[O-])c2O)c2cc(Cl)cc([N+](=O)[O-])c2O)cc1 [Compound 33],minimal effective concentration,live Fasciola hepatica,5 µg/mL
CC(=O)Nc1ccc(OC(c2cc(Cl)cc([N+](=O)[O-])c2O)c2cc(Cl)cc([N+](=O)[O-])c2O)cc1 [Compound 44],minimal effective concentration,live Fasciola hepatica,5 µg/mL
O=[N+]([O-])c1cc(Cl)cc(C(SCc2ccc(Cl)cc2)c2cc(Cl)cc([N+](=O)[O-])c2O)c1O [Compound 49],minimal effective concentration,live Fasciola hepatica,1.5 µg/mL
O=[N+]([O-])c1cc(Cl)cc(C(OCc2cc(Cl)cc(Cl)c2)c2cc(Cl)cc([N+](=O)[O-])c2O)c1O [Compound 41],minimal effective concentration,live Fasciola hepatica,10 µg/mL
O=[N+]([O-])c1cc(Br)cc(C(c2cc(Br)cc([N+](=O)[O-])c2O)C(F)(F)F)c1O [Compound 56],"FAECAL EGG COUNT, day 7",[1]; single dose 6.0 mg/kg,10 Eggs/g faeces
same,"FAECAL EGG COUNT, day 14",[1]; single dose 6.0 mg/kg,0 Eggs/g faeces
same,POST MORTEM RESULT No. of adult fluke,[1]; single dose 6.0 mg/kg,0
same,minimal effective concentration,live Fasciola hepatica,1 µg/mL
O=[N+]([O-])c1cc(Cl)cc(C(=C(Cl)Cl)c2cc(Cl)cc([N+](=O)[O-])c2O)c1O [Compound 14],"FAECAL EGG COUNT, day 7",[1]; single dose 0.5 mg/kg,0 Eggs/g faeces
same,"FAECAL EGG COUNT, day 14",[1]; single dose 0.5 mg/kg,0 Eggs/g faeces
same,POST MORTEM RESULT No. of adult fluke,[1]; single dose 0.5 mg/kg,0
same,"FAECAL EGG COUNT, day 7",[1]; single dose 2.0 mg/kg,60 Eggs/g faeces
same,"FAECAL EGG COUNT, day 14",[1]; single dose 2.0 mg/kg,0 Eggs/g faeces
same,POST MORTEM RESULT No. of adult fluke,[1]; single dose 2.0 mg/kg,0
same,"FAECAL EGG COUNT, day 7",[1]; single dose 12.5 mg/kg,0 Eggs/g faeces
same,"FAECAL EGG COUNT, day 14",[1]; single dose 12.5 mg/kg,0 Eggs/g faeces
same,POST MORTEM RESULT No. of adult fluke,[1]; single dose 12.5 mg/kg,0
same,effective against immature fluke,immature fluke; 10 mg/kg,90.6%
same,effective against immature fluke,immature fluke; 15 mg/kg,100%
O=[N+]([O-])c1cc(Cl)cc(C(Oc2ccccc2)c2cc(Cl)cc([N+](=O)[O-])c2O)c1O [Compound 32],minimal effective concentration,live Fasciola hepatica,5 µg/mL
O=[N+]([O-])c1cccc(COC(c2cc(Cl)cc([N+](=O)[O-])c2O)c2cc(Cl)cc([N+](=O)[O-])c2O)c1 [Compound 39],minimal effective concentration,live Fasciola hepatica,0.5 µg/mL
COc1cc(Cl)ccc1COC(c1cc(Cl)cc([N+](=O)[O-])c1O)c1cc(Cl)cc([N+](=O)[O-])c1O [Compound 43],minimal effective concentration,live Fasciola hepatica,5 µg/mL
CC(OC(c1cc(Cl)cc([N+](=O)[O-])c1O)c1cc(Cl)cc([N+](=O)[O-])c1O)c1ccccc1 (stereo not drawn) [Compound 36],minimal effective concentration,live Fasciola hepatica,1 µg/mL
O=[N+]([O-])c1cc(Cl)cc(C(c2cc(Cl)cc([N+](=O)[O-])c2O)C(F)(F)C(F)(F)F)c1O [Compound 54],"FAECAL EGG COUNT, day 7",[1]; single dose 2.0 mg/kg,10 Eggs/g faeces
same,"FAECAL EGG COUNT, day 14",[1]; single dose 2.0 mg/kg,0 Eggs/g faeces
same,POST MORTEM RESULT No. of adult fluke,[1]; single dose 2.0 mg/kg,0
same,"FAECAL EGG COUNT, day 7",[1]; single dose 6.0 mg/kg,0 Eggs/g faeces
same,"FAECAL EGG COUNT, day 14",[1]; single dose 6.0 mg/kg,0 Eggs/g faeces
same,POST MORTEM RESULT No. of adult fluke,[1]; single dose 6.0 mg/kg,0
same,effective against immature fluke,immature fluke; 15 mg/kg,83%
O=[N+]([O-])c1cc(Cl)cc(C(Oc2ccc(F)cc2)c2cc(Cl)cc([N+](=O)[O-])c2O)c1O [Compound 35],minimal effective concentration,live Fasciola hepatica,5 µg/mL
